Results published in patent publication US5843959A, “Methods and bicyclic polyamine compositions for the treatment of inflammation” (University of Florida Research Foundation, Inc., priority 1997, dated 1998).
Where “and” joins values, the source holds several entries; their conditions need not be identical. Identical values can stand only once.

Columns and labels:
[1] = system: carrageenan-induced edema in rat paw; assay: Inhibition of carrageenan-induced paw edema in rats; conditions: vs vehicle control; aspirin 150 mg/kg p.o., hydrocortisone 25 mg/kg p.o., PIP[4,4,4] 30 mg/kg i.p.; >30% significant
[2] = system: adjuvant-induced arthritis; conditions: for Inhibition % B (5-0): 5th day after 5 doses; for Inhibition % B (5-0) / Inhibition % A (1-0): p.o.: PIP[4,4,4] 100, hydrocortisone 30, indomethacin 5 mg/kg; for Inhibition % B (5-0) / Inhibition % A (1-0) / Inhibition % C (5-1) / Inhibition % D (14-0) / Inhibition % F (18-14) / Inhibition % E (18-0): >30% significant; for Net swelling of paw volume A (1-0), average: Day 1 - Day 0, average; for Net swelling of paw volume B (5-0), average: Day 5 - Day 0, average; for Net swelling of paw volume B (5-0): Day 5 - Day 0, individual rat; for Net swelling of paw volume C (5-1), average: Day 5 - Day 1, average; for Net swelling of paw volume C (5-1): Day 5 - Day 1, individual rat; for Polyarthritis E (ears) / Polyarthritis N (noses) / Polyarthritis P (paws) / Polyarthritis T (tails): Day 19, individual rat; for Inhibition % A (1-0): first day, after one dose; for Inhibition % C (5-1): paw volume change Day 1 to Day 5; for Net swelling of paw volume D (14-0), average / Net swelling of paw volume D (14-0) / Inhibition % D (14-0) / Inhibition % F (18-14) / Net swelling of paw volume E (18-0), average / Net swelling of paw volume E (18-0) / Net swelling of paw volume F (18-14), average / Net swelling of paw volume F (18-14) / Inhibition % E (18-0): untreated paw; for Net swelling of paw volume D (14-0), average: Day 14 - Day 0, average; for Net swelling of paw volume D (14-0): Day 14 - Day 0, individual rat; for Inhibition % D (14-0): Day 14 relative to Day 0; for Inhibition % F (18-14): Day 14 to Day 18; for Net swelling of paw volume E (18-0), average: Day 18 - Day 0, average; for Net swelling of paw volume E (18-0): Day 18 - Day 0, individual rat; for Net swelling of paw volume F (18-14), average: Day 18 - Day 14, average; for Net swelling of paw volume F (18-14): Day 18 - Day 14, individual rat; for Inhibition % E (18-0): Day 18 relative to Day 0; for Weight gain reductions (in words): vs vehicle-treated animals, 18 day study
[3] = system: adjuvant-induced arthritis; assay: Adjuvant-induced arthritis model in Lewis rats (Table 7); conditions: p.o. 5 days, DiPIPs 100 mg/kg, Voltaren and indomethacin 6 mg/kg; for % FINAL INHIBITION: Day 28-0
Description: Four groups consisting of 6 male Lewis rats weighing 150-200 g were injected subcutaneously at the base of the tail with 0.1 ml of CFA. Drugs to be assayed were administered 5 days beginning on the day of the adjuvant injection. The paw volume of the right and left rear paw of each rat were measured on the day of adjuvant injection and at regular intervals for 30 days thereafter.
The emulsion was injected subcutaneously at the base of the tail and induced the arthritic state. Measurements of paw volume were made for 30 days to monitor paw swelling. Drug treatment began on Day 0.
Four groups consisting of 10 male Lewis rats weighing 150-200 g were injected subcutaneously at the base of the tail with 0.1 ml of CFA. Drugs to be assayed were administered for 5 days beginning on the day of the adjuvant injection.

[4] = p.o. × 5: PIP[4,4,4] 100, hydrocortisone 30, indomethacin 5 mg/kg

Row | SMILES | % Edema inhibition [1] | Inhibition % B (5-0) [2] | Net swelling of paw volume A (1-0), average [2, 4] | Net swelling of paw volume B (5-0), average [2, 4] | Net swelling of paw volume B (5-0) [2, 4] | Net swelling of paw volume C (5-1), average [2, 4] | Net swelling of paw volume C (5-1) [2, 4] | Polyarthritis E (ears) [2, 4] | Polyarthritis N (noses) [2, 4] | Polyarthritis P (paws) [2, 4] | Polyarthritis T (tails) [2, 4] | Inhibition % A (1-0) [2] | Inhibition % C (5-1) [2, 4] | Net swelling of paw volume D (14-0), average [2, 4] | Net swelling of paw volume D (14-0) [2, 4] | Inhibition % D (14-0) [2, 4] | Inhibition % F (18-14) [2, 4] | Net swelling of paw volume E (18-0), average [2, 4] | Net swelling of paw volume E (18-0) [2, 4] | % FINAL INHIBITION [3] | also measured
1 | C[C@]12CCC(=O)C=C1CC[C@@H]1[C@@H]2[C@@H](O)C[C@@]2(C)[C@H]1CC[C@]2(O)C(=O)CO [Hydrocortisone] | 32% | 36% | 0.73 mL | 1.06 mL | 0.89 mL and 0.96 mL and 0.86 mL and 0.98 mL and 1.61 mL | 0.33 mL | 0.11 mL and 0.31 mL and 0.16 mL and 0.91 mL | - | - | + and - | - | 12% | 60% | 0.35 mL | 0.43 mL and 0.31 mL and 0.30 mL and 0.38 mL and 0.33 mL | 22% | 37% | 0.54 mL | 0.53 mL and 0.38 mL and 0.66 mL and 0.72 mL and 0.41 mL |  | Net swelling of paw volume F (18-14), average [2, 4]: 0.19 mL; Net swelling of paw volume F (18-14) [2, 4]: 0.10 mL and 0.07 mL and 0.36 mL and 0.34 mL and 0.08 mL; Inhibition % E (18-0) [2, 4]: 28%; Weight gain reductions (in words) [2]: did not affect weight gain reductions
2 | C(CCNC1CCNCC1)CNC1CCNCC1 [DiPIP[3,4,3], N,N'-Bis(4-piperidinyl)-1,4-butanediamine] |  |  |  |  |  |  |  |  |  |  |  |  |  |  |  |  |  |  |  | 70% and 41% | 
3 | O=C(O)Cc1ccccc1Nc1c(Cl)cccc1Cl [Voltaren] |  |  |  |  |  |  |  |  |  |  |  |  |  |  |  |  |  |  |  | 67% | FINAL DAY 28-0 (paw volume) [3]: .629; INITIAL DAY 14-0 (paw volume) [3]: .232
4 | COc1ccc2c(c1)c(CC(=O)O)c(C)n2C(=O)c1ccc(Cl)cc1 [Indomethacin] |  | 48% | 0.53 mL | 0.85 mL | 0.84 mL and 0.86 mL and 0.72 mL and 0.81 mL and 1.02 mL | 0.32 mL | 0.31 mL and 0.28 mL and 0.14 mL and 0.30 mL and 0.57 mL | - | - | - | - | 36% | 61% | 0.28 mL | 0.20 mL and 0.40 mL and 0.26 mL and 0.42 mL and 0.12 mL | 38% | 50% | 0.43 mL | 0.43 mL and 0.50 mL and 0.51 mL and 0.49 mL and 0.22 mL | 93% | FINAL DAY 28-0 (paw volume) [3]: 0.14; INITIAL DAY 14-0 (paw volume) [3]: .004; Net swelling of paw volume A (1-0) ([2]; Day 1 - Day 0, individual rat, p.o. × 5: PIP[4,4,4] 100, hydrocortisone 30, indomethacin 5 mg/kg): 0.53 mL and 0.58 mL and 0.51 mL and 0.45 mL; B.W. Gain (18-0), average ([2]; rat, in vivo): 8 g; Net swelling of paw volume F (18-14), average [2, 4]: 0.15 mL; Net swelling of paw volume F (18-14) [2, 4]: 0.23 mL and 0.10 mL and 0.25 mL and 0.07 mL; Inhibition % E (18-0) [2, 4]: 43%; Weight gain reductions (in words) [2]: did not affect weight gain reductions
5 | CC(=O)Oc1ccccc1C(=O)O [Aspirin] | 46% |  |  |  |  |  |  |  |  |  |  |  |  |  |  |  |  |  |  |  | 
